# Read-outs that look alike come from different tables or passages of the source.
# Key:
# [1] = tested on: IL-2 secretion by human effector memory T cells (TEM); assay: Effector memory T cells IL-2 release assay; assay type: cell-based; details: human CD4+ effector memory T cells, CD3/CD28 bead stimulation, 24 h, read-out: CD4TC IL2 IC50
# Procedure, shortened: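 Human CD4+ effector memory T cells from healthy-donor buffy coats were stimulated with anti-CD3/CD28 Dynabeads and exposed to 10 semi-log compound doses (0.1% DMSO) for 24 h at 37 °C. Supernatant IL-2 was measured by HTRF, and IC50 came from a 4-parameter logistic fit to maximal IL-2. Viability was checked by flow cytometry.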
# [2] = biological target: Recombinant human MALT-1 (amino acids 340-824) (Homo sapiens (Human), UniProt Q9UDY8); assay: MALT-1 inhibition assay (fluorogenic substrate Ac-LRSR-Rh110-DP); assay type: biochemical; details: recombinant human MALT-1, substrate Ac-LRSR-Rh110-DP
# Procedure, shortened: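 MALT-1 at 3 nM final was reacted with 10 μM Ac-LRSR-Rh110-DP, with substrate addition starting the reaction. Incubation ran 60 minutes at 25° C in the dark. Percent inhibition from fluorescence across doses was fitted to a 4-parameter logistic to give IC50.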
# Recombinant human MALT-1 (amino acids 340-824), sequence (Q9UDY8 340-824): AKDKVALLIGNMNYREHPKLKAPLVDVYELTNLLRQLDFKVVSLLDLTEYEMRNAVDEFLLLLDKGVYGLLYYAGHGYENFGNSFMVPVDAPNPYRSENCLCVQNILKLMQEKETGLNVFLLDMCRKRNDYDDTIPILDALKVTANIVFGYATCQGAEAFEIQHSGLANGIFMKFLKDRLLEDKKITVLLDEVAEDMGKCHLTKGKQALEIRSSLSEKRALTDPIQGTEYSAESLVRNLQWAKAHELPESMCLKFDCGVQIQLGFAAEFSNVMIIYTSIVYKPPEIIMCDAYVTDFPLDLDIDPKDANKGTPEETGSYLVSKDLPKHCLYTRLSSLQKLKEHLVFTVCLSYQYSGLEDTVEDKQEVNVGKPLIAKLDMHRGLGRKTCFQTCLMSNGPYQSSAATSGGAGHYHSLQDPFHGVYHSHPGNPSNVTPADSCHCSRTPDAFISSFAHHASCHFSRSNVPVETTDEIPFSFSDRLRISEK
SMILES,IC50 ([1]; T-cell) [µM],IC50 [2] [µM],IC50 [1] [µM]
"CN(C(=O)[C@@H]1CC12CCS(=O)(=O)CC2)[C@@H](c1ccc(N2CCCc3c2cnc2cc(Cl)nn32)cc1)C(F)(F)F (relative stereo) [CPD0073921, (1rel-R)-N-[(1S)-1-(4-{4-chloro-2,3,7,10-tetraazatricyclo[7.4.0.0^2,6]trideca-1(9),3,5,7-tetraen-10-yl}phenyl)-2,2,2-trifluoroethyl]-N-methyl-6,6-dioxo-6λ^6-thiaspiro[2.5]octane-1-carboxamide]",0.186,0.109,–
"COC[C@@]1(C)CCN(c2ccc([C@H](N(C)C(=O)[C@H]3CC[S@@+]([O-])CC3)C(F)(F)F)cc2)c2cnc3cc(Cl)nn3c21 (relative stereo) [CPD0073137, (1rel-s,4rel-s)-N-[(1S)-1-[4-[(13rel-S)-4-chloro-13-(methoxymethyl)-13-methyl-2,3,7,10-tetrazatricyclo[7.4.0.0^2,6]trideca-1(9),3,5,7-tetraen-10-yl]phenyl]-2,2,2-trifluoro-ethyl]-N-methyl-1-oxo-1λ^4-thiane-4-carboxamide]",0.045,0.09,–
"COc1cncc2c1CCCN2c1ccc(C(N(C)C(=O)C2CCS(=O)(=O)CC2)C(F)(F)F)cc1 (stereo in doubt) [CPD0021939, N-methyl-1,1-dioxo-N-[(1S)-2,2,2-trifluoro-1-[4-(5-methoxy-3,4-dihydro-2H-1,7-naphthyridin-1-yl)phenyl]ethyl]thiane-4-carboxamide]",0.894,0.271,–
"CC1CCc2c(cnc3cc(Cl)nn23)N1c1ccc([C@H](N(C)C(=O)C2CCS(=O)(=O)CC2)C(F)(F)F)cc1 (stereo partly drawn) [CPD0072806, N-[(1S)-1-{4-[(11rel-R)-4-chloro-11-methyl-2,3,7,10-tetraazatricyclo[7.4.0.0^2,6]trideca-1(9),3,5,7-tetraen-10-yl]phenyl}-2,2,2-trifluoroethyl]-N-methyl-1,1-dioxo-1λ^6-thiane-4-carboxamide]",–,0.069,0.206
"CN(C(=O)[C@@H]1CCC(=O)N1C)[C@@H](c1ccc(N2CCCc3c2cnc2cc(Cl)nn32)cc1)C(F)(F)F [CPD0073919, (2S)-N-[(1S)-1-(4-{4-chloro-2,3,7,10-tetraazatricyclo[7.4.0.0^2,6]trideca-1(9),3,5,7-tetraen-10-yl}phenyl)-2,2,2-trifluoroethyl]-N,1-dimethyl-5-oxopyrrolidine-2-carboxamide]",0.112,0.061,–
"CN(C(=O)C1CCS(=O)(=O)CC1)[C@@H](c1ccc(N2CCC(C)(C)c3c2cnc2cc(Cl)nn32)nc1)C(F)(F)F [CPD0021562, N-[(1S)-1-(6-{4-chloro-13,13-dimethyl-2,3,7,10-tetraazatricyclo[7.4.0.0^2,6]trideca-1(9),3,5,7-tetraen-10-yl}pyridin-3-yl)-2,2,2-trifluoroethyl]-N-methyl-1,1-dioxo-1λ^6-thiane-4-carboxamide]",0.103,0.08,–
"COc1ccc2ncc(N(C)c3ccc([C@H](N(C)C(=O)C4CCS(=O)(=O)CC4)C(F)(F)F)cc3)cc2n1 [CPD0021585, N-methyl-1,1-dioxo-N-[(1S)-2,2,2-trifluoro-1-{4-[(6-methoxy-1,5-naphthyridin-3-yl)(methyl)amino]phenyl}ethyl]-1λ^6-thiane-4-carboxamide]",1.68,0.863,–
"CN(C(=O)[C@H]1C[C@H]([S@@+](C)(=N)[O-])C1)[C@@H](c1ccc(N2CCCc3c2cnc2cc(Cl)nn32)cc1)C(F)(F)F [CPD0073225, (1S,3r)-N-[(1S)-1-(4-{4-chloro-2,3,7,10-tetraazatricyclo[7.4.0.0^2,6]trideca-1(9),3,5,7-tetraen-10-yl}phenyl)-2,2,2-trifluoroethyl]-3-[(S)-imino(methyl)oxo-λ^6-sulfanyl]-N-methylcyclobutane-1-carboxamide]",0.122,0.053,–
"CN(C(=O)[C@H]1C[C@H](S(C)(=O)=O)C1)[C@@H](c1ccc(N2CCCc3c2cnc2cc(Cl)nn32)cc1)C(F)(F)F [CPD0073501, trans-N-[(1S)-1-(4-{4-chloro-2,3,7,10-tetraazatricyclo[7.4.0.0^2,6]trideca-1(9),3,5,7-tetraen-10-yl}phenyl)-2,2,2-trifluoroethyl]-3-methanesulfonyl-N-methylcyclobutane-1-carboxamide]",0.14,0.066,–
CO[C@H](C)c1c(Nc2ccc([C@H](N(C)C(=O)C3CCS(=O)(=O)CC3)C(F)(F)F)cc2)cnn2cc(Cl)nc12 [CPD0072850],0.114,0.043,–
CC1CCN(c2ccc([C@H](N(C)C(=O)[C@H]3CC[S@](=N)(=O)CC3)C(F)(F)F)cc2)c2cnc3cc(Cl)nn3c21 (stereo partly drawn) [CPD0072813],0.061,0.027,–
"COC[C@@]1(C)CCN(c2ccc([C@H](N(C)C(=O)[C@H]3CC[S@@](=N)(=O)CC3)C(F)(F)F)cc2)c2cnc3cc(Cl)nn3c21 (relative stereo) [CPD0073133, (1rel-s,4rel-s)-N-[(1S)-1-[4-[(13rel-S)-4-chloro-13-(methoxymethyl)-13-methyl-2,3,7,10-tetrazatricyclo[7.4.0.0^2,6]trideca-1(9),3,5,7-tetraen-10-yl]phenyl]-2,2,2-trifluoro-ethyl]-1-imino-N-methyl-1-oxo-1λ^6-thiane-4-carboxamide]",0.064,0.081,–
"CN(C(=O)[C@H]1CC[S@+]([O-])CC1)[C@@H](c1ccc(N2CCCc3c2cnc2cc(Cl)nn32)cc1)C(F)(F)F (relative stereo) [CPD0022137, (1rel-r,4rel-r)-N-[(1S)-1-(4-{4-chloro-2,3,7,10-tetraazatricyclo[7.4.0.0^2,6]trideca-1(9),3,5,7-tetraen-10-yl}phenyl)-2,2,2-trifluoroethyl]-N-methyl-1-oxo-1λ^4-thiane-4-carboxamide]",0.127,0.073,–
"CC(=O)N1CC[C@@H](C(=O)N(C)[C@@H](c2ccc(N3CCCc4c3cnc3cc(Cl)nn43)cc2)C(F)(F)F)C1 (relative stereo) [CPD0073188, (3rel-R)-1-acetyl-N-[(1S)-1-(4-{4-chloro-2,3,7,10-tetraazatricyclo[7.4.0.0^2,6]trideca-1(9),3,5,7-tetraen-10-yl}phenyl)-2,2,2-trifluoroethyl]-N-methylpyrrolidine-3-carboxamide]",0.235,0.113,–

# Continued by falling IC50 ([1]; T-cell), values first:
IC50 ([1]; T-cell) [µM],IC50 [2] [µM],SMILES,IC50 [1] [µM]
0.194,0.063,CN(C(=O)C1CCS(=N)(=O)CC1)[C@@H](c1ccc(N2CCCc3c2cnc2cc(Cl)nn32)cc1)C(F)(F)F (stereo partly drawn) [CPD0021810],–
0.147,0.095,"CN(C(=O)C1C2CS(=O)(=O)CC21)[C@@H](c1ccc(N2CCCc3c2cnc2cc(Cl)nn32)cc1)C(F)(F)F (stereo partly drawn) [CPD0072801, N-[(1S)-1-(4-{4-chloro-2,3,7,10-tetraazatricyclo[7.4.0.0^2,6]trideca-1(9),3,5,7-tetraen-10-yl}phenyl)-2,2,2-trifluoroethyl]-N-methyl-3,3-dioxo-3λ^6-thiabicyclo[3.1.0]hexane-6-carboxamide]",–
0.116,0.066,"CN(C(=O)[C@@H]1CCN(S(C)(=O)=O)C1)[C@@H](c1ccc(N2CCCc3c2cnc2cc(Cl)nn32)cc1)C(F)(F)F (relative stereo) [CPD0073144, (3rel-R)-N-[(1S)-1-(4-{4-chloro-2,3,7,10-tetraazatricyclo[7.4.0.0^2,6]trideca-1(9),3,5,7-tetraen-10-yl}phenyl)-2,2,2-trifluoroethyl]-1-methanesulfonyl-N-methylpyrrolidine-3-carboxamide]",–
0.092,0.09,"CN(C(=O)[C@@H]1C[C@H]2CC[C@@H](C1)S2(=O)=O)[C@@H](c1ccc(N2CCCc3c2cnc2cc(Cl)nn32)cc1)C(F)(F)F [CPD0072938, (1R,3R,5S)-N-[(1S)-1-(4-{4-chloro-2,3,7,10-tetraazatricyclo[7.4.0.0^2,6]trideca-1(9),3,5,7-tetraen-10-yl}phenyl)-2,2,2-trifluoroethyl]-N-methyl-8,8-dioxo-8λ^6-thiabicyclo[3.2.1]octane-3-carboxamide]",–
0.042,0.058,"CN(C(=O)[C@H]1CC[S@@+]([O-])CC1)[C@@H](c1ccc(N2CCC3(CC3)c3c2cnc2cc(Cl)nn32)cc1)C(F)(F)F (relative stereo) [CPD0072778, (1rel-s,4rel-s)-N-[(1S)-1-(4-{4′-chloro-2′,3′,7′,10′-tetraazaspiro[cyclopropane-1,13′-tricyclo[7.4.0.0^2,6]tridecane]-1′(9′),3′,5′,7′-tetraen-10′-yl}phenyl)-2,2,2-trifluoroethyl]-N-methyl-1-oxo-1λ^4-thiane-4-carboxamide]",–
0.036,0.062,"CN(C(=O)[C@H]1CC[S@+]([O-])CC1)[C@@H](c1ccc(N2CCC(C)(C)c3c2cnc2cc(Cl)nn32)cc1)C(F)(F)F (relative stereo) [CPD0072777, (1rel-r,4rel-r)-N-[(1S)-1-(4-{4-chloro-13,13-dimethyl-2,3,7,10-tetraazatricyclo[7.4.0.0^2,6]trideca-1(9),3,5,7-tetraen-10-yl}phenyl)-2,2,2-trifluoroethyl]-N-methyl-1-oxo-1λ^4-thiane-4-carboxamide]",–
0.027,0.027,"CN(C(=O)[C@H]1CC[S@@](=N)(=O)CC1)[C@@H](c1ccc(N2CCC3(CC3)c3c2cnc2cc(Cl)nn32)cc1)C(F)(F)F [CPD0072772, (1rel-s,4rel-s)-N-[(1S)-1-(4-{4′-chloro-2′,3′,7′, 10′-tetraazaspiro[cyclopropane-1,13′-tricyclo[7.4.0.0^2,6]tridecane]-1′(9′),3′,5′,7′-tetraen-10′-yl}phenyl)-2,2,2-trifluoroethyl]-1-imino-N-methyl-1-oxo-1λ^6-thiane-4-carboxamide]",–

# From US20250051327A1, “MALT-1 MODULATORS” (EXSCIENTIA AI LIMITED, priority 2020, published 2025)
